This is an account of results in patent US12060347B2 (BRISTOL-MYERS SQUIBB COMPANY, priority 2016, dated 2024).

The experiment has as its target T1, human PAR4 (Homo sapiens, UniProt Q96RI0).
T1 construct: expressed in transfected cells; host or cells: HEK293 PAR4 Clone 1.2A (BMS Arctic ID 383940)
T1 sequence (Q96RI0 18-385): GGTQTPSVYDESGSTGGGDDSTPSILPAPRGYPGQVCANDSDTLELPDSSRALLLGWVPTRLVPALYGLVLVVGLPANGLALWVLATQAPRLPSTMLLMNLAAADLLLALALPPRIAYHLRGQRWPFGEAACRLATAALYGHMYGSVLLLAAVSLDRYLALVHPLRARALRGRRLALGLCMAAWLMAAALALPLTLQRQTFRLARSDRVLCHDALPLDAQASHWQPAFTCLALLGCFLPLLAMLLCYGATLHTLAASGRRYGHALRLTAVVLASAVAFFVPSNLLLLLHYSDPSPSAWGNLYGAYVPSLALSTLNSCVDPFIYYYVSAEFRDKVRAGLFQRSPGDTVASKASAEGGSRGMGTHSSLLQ
Nature of the experiment: PAR4 FLIPR assay: antagonism of agonist-peptide-induced calcium mobilization in PAR4-expressing HEK293 cells. In kind it is cell-based. Particulars: H-Ala-Phe(4-F)-[…]NH2-induced intracellular calcium mobilization, 11-point curves. (In general: Calcium assays in cells follow changes in intracellular calcium, usually with a dye or a luminescent sensor.)

`COc1cnc2c(-c3nc4cc(F)c(O[C@@H](C)[C@@H](C)OC(=O)Nc5ccnc(C(=O)NCC(C)(C)O)c5)cc4s3)cc(C)cc2n1` [Example 465, (2R,3S)-3-((5-fluoro-2-(2-methoxy-7-methylquinoxalin-5-yl)benzo[d]thiazol-6-yl)oxy)butan-2-yl (2-((2-hydroxy-2-methylpropyl)carbamoyl)pyridin-4-yl)carbamate]: the concentration for half-maximal inhibition (IC50) (as a rule, the concentration that gives 50% inhibition) was 1.4 nM.
The same measure for `COc1cnc2c(-c3nc4cc(F)c(OC[C@@H](C)OC(=O)Nc5cnc(C(=O)N(C)C)nc5)cc4s3)cc(C)cc2n1` [Example 431, (R)-1-((5-fluoro-2-(2-methoxy-7-methylquinoxalin-5-yl)benzo[d]thiazol-6-yl)oxy)propan-2-yl (2-(dimethylcarbamoyl)pyrimidin-5-yl)carbamate]: 1.1 nM.
As for `Cc1cc(-c2nc3ccc(OCCNC(=O)OCC4CCCO4)cc3s2)c2ncc(OC(F)F)nc2c1` (stereo not drawn) [Example 19, (Tetrahydrofuran-2-yl)methyl (2-((2-(2-(difluoromethoxy)-7-methylquinoxalin-5-yl)benzo[d]thiazol-6-yl)oxy)ethyl)carbamate], the IC50 amounted to 41 nM.
To `COc1cnc2c(-c3nc4cc(F)c(O[C@@H](C)[C@@H](C)OC(=O)Nc5cnc(OC[C@H](C)O)nc5)nc4s3)cc(C)cc2n1` [Example 728, (2R,3S)-3-((6-fluoro-2-(2-methoxy-7-methylquinoxalin-5-yl)thiazolo[5,4-b]pyridin-5-yl)oxy)butan-2-yl (2-((S)-2-hydroxypropoxy)pyrimidin-5-yl)carbamate] belongs 2.4 nM.
As to `COCc1cnc2c(-c3nc4c(Cl)cc(OC)cc4s3)cccc2n1` [Example 212, 4-chloro-6-methoxy-2-(2-(methoxymethyl)quinoxalin-5-yl)benzo[d]thiazole], the IC50 was determined as 2.4 nM.
With `COc1cc(C(O)C2(C)CCOCC2)c2nc(-c3cc(C)cc4nc(OC)cnc34)sc2c1` (stereo not drawn) [Example 674, (6-methoxy-2-(2-methoxy-7-methylquinoxalin-5-yl)benzo[d]thiazol-4-yl)(4-methyltetrahydro-2H-pyran-4-yl)methanol], the IC50 worked out at 20 nM.
Consider `COCc1cnc2c(-c3nc4c(Cl)cc(OC)cc4s3)cc(Cl)cc2n1` [Example 210, 4-chloro-2-(7-chloro-2-(methoxymethyl)quinoxalin-5-yl)-6-methoxybenzo[d]thiazole], for which the half-maximal inhibitory concentration (IC50) was 0.3 nM.
Turning to `COC(=O)COc1cc2sc(-c3cc(C)cc4nc(OC)cnc34)nc2c(C)c1F` [Example 285, methyl 2-((5-fluoro-2-(2-methoxy-7-methylquinoxalin-5-yl)-4-methylbenzo[d]thiazol-6-yl)oxy)acetate], the IC50 worked out at 16 nM.
Consider `COc1c(F)cc(F)c2nc(-c3cc(C)cc4nc(OC(F)F)cnc34)sc12` [Example 13, 2-(2-(difluoromethoxy)-7-methylquinoxalin-5-yl)-4,6-difluoro-7-methoxybenzo[d]thiazole], for which the IC50 was 3.5 nM.
`COc1cnc2c(-c3nc4c(Cl)c(F)c(OCC(=O)N5CCOCC5)cc4s3)cc(C)cc2n1` [Example 324, 2-((4-chloro-5-fluoro-2-(2-methoxy-7-methylquinoxalin-5-yl)benzo[d]thiazol-6-yl)oxy)-1-morpholinoethanone]: the IC50 amounted to 42 nM.
For `COc1cnc2c(-c3nc4cc(F)c(O[C@@H](C)[C@@H](C)OC(=O)Nc5ccnc(OCCO)c5)nc4s3)cc(C)cc2n1` [Example 719, (2R,3S)-3-((6-fluoro-2-(2-methoxy-7-methylquinoxalin-5-yl)thiazolo[5,4-b]pyridin-5-yl)oxy)butan-2-yl (2-(2-hydroxyethoxy)pyridin-4-yl)carbamate], the IC50 was found to be 1.7 nM.
The same measure for `Cc1cc(-c2nc3c(C)cc(OCCNS(=O)(=O)c4ccc(F)cc4)cc3s2)c2ncc(COC(F)F)nc2c1` [Example 114, N-(2-(2-(2-((difluoromethoxy)methyl)-7-methylquinoxalin-5-yl)-4-methylbenzo[d]thiazol-6-yloxy)ethyl)-4-fluorobenzenesulfonamide]: 1600 nM.
